In PMC11596957, “Biological Characteristics of a Novel Bibenzyl Synthase (DoBS1) Gene from Dendrobium officinale Catalyzing Dihydroresveratrol Synthesis” (Molecules, 2024) one finds Km data, which are given here for one compound.

Molecules are shown by their SMILES.

The assay deals with T1, DoBS1 (bibenzyl synthase) (Dendrobium officinale, UniProt Z9NEY1S5B3).
T1 construct: type III PKS family known as homodimer
T1 sequence (Z9NEY1S5B3 1-390): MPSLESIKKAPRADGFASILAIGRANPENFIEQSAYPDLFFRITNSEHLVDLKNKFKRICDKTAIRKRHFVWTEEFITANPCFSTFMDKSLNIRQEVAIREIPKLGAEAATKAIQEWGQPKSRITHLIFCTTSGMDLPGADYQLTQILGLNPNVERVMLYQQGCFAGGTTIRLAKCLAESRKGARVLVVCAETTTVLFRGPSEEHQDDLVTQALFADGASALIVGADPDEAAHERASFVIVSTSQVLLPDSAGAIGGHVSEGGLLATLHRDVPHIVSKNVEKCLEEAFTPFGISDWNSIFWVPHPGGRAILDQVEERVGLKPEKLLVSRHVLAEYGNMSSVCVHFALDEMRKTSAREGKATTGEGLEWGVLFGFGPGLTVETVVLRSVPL
Nature of the assay: HPLC of dihydroresveratrol formation, Michaelis-Menten fit. The format is biochemical. The conditions noted are these: co-substrate malonyl-CoA (2.5 mM in the described assay), 37 °C, 30 min; text gives the Km 'for DHR' production, Figure 7 legend names p-coumaroyl-CoA as varied substrate; unit printed as mmol. The source says:
HPLC of dihydroresveratrol formation, Michaelis-Menten fit on DoBS1 (bibenzyl synthase) | Kinetic analysis of DoBS1 toward p-coumaroyl-CoA

With `CC(C)(COP(=O)(O)OP(=O)(O)OC[C@H]1O[C@@H](n2cnc3c(N)ncnc32)[C@H](O)[C@@H]1OP(=O)(O)O)[C@@H](O)C(=O)NCCC(=O)NCCSC(=O)/C=C/c1ccc(O)cc1` [p-coumaroyl-CoA], the Km was found to be 0.30 ± 0.08 mmol.
